Experimental data published in PubChem BioAssay (NCI).
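A five-concentration, 48-hour dose response in 96-well plates underlies each endpoint, interpolated linearly between surrounding concentrations. TGI marks complete inhibition of growth.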

Experiments:
Test in all cases: DTP human tumour cell line panel, 48 h
[1] = tested on: HOP-92 NSCLC
[2] = tested on: NCI-H23 lung
[3] = tested on: RPMI-8226 leukemia
[4] = tested on: DU-145 prostate
[5] = tested on: COLO 205 colon
[6] = tested on: SK-MEL-28 melanoma
[7] = tested on: UACC-257 melanoma
[8] = tested on: M14 melanoma
[9] = tested on: CAKI-1 renal
[10] = tested on: 786-0 renal
[11] = tested on: HOP-62 NSCLC
[12] = tested on: MDA-N
[13] = tested on: A498 renal
[14] = tested on: MOLT-4 leukemia
[15] = tested on: PC-3 prostate
[16] = tested on: A549 NSCLC
[17] = tested on: EKVX NSCLC
[18] = tested on: BT-549 breast
[19] = tested on: OVCAR-4 ovarian
[20] = tested on: UO-31 renal
[21] = tested on: OVCAR-5 ovarian
[22] = tested on: UACC-62 melanoma
[23] = tested on: HS 578T breast
[24] = tested on: HCT-15 colon
[25] = tested on: SK-MEL-5 melanoma
[26] = tested on: MDA-MB-435
[27] = tested on: SK-MEL-2 melanoma
[28] = tested on: HT29 colon
[29] = tested on: IGROV1 ovarian
[30] = tested on: OVCAR-3 ovarian
[31] = tested on: TK-10 renal
[32] = tested on: NCI-H460 lung
[33] = tested on: T-47D breast
[34] = tested on: HCT-116 colon
[35] = tested on: SF-268 CNS
[36] = tested on: SR leukemia
[37] = tested on: SNB-75 CNS
[38] = tested on: KM12 colon
[39] = tested on: SNB-19 CNS
[40] = tested on: ACHN renal
[41] = tested on: SK-OV-3 ovarian
[42] = tested on: SN12C renal
[43] = tested on: HCC-2998 colon
[44] = tested on: OVCAR-8 ovarian
[45] = tested on: LOX IMVI melanoma
[46] = tested on: U251 CNS
[47] = tested on: SF-295 CNS
[48] = tested on: CCRF-CEM leukemia
[49] = tested on: SW-620 colon
[50] = tested on: MDA-MB-231 breast
[51] = tested on: RXF 393 renal
[52] = tested on: MCF7 breast
[53] = tested on: K-562 leukemia

Measured: TGI

CCC(C)c1cnc(CC(C)C)c(=O)[nH]1 (stereo not drawn)
> 100 µM: [1] | [2] | [3] | [4] | [5] | [6] | [7] | [8] | [9] | [10] | [11] | [12] | [13] | [14] | [15] | [16] | [17] | [18] | [19] | [20] | [21] | [22] | [23] | [24] | [25] | [26] | [27] | [28] | [29] | [30] | [31] | [32] | [33] | [34] | [35] | [36] | [37] | [38] | [39] | [40] | [41] | [42] | [43] | [44] | [45] | [46] | [47] | [48] | [49] | [50] | [51] | [52] | [53]
